Measurements as given in patent US20120138147A1, “PHOTOELECTRIC CONVERSION ELEMENT, MANUFACTURING METHOD OF THE SAME AND ELECTRONIC EQUIPMENT” (Sony Corporation, priority 2010, published 2012).

Experiment: physchem
From the text: Here, Ka is the dissociation equilibrium constant of a conjugate acid in water. This additive is typically a pyridine-based additive or an additive having a heterocycle. […] However, the pyridine-based additives are not limited thereto. On the other hand, among specific examples of additives having a heterocycle are N-methylimidazole(MIm), 2,4-lutidine(24-Lu), 2,5-lutidine(25-Lu), 2,6-lutidine(26-Lu), 3,4-lutidine(34-Lu) and 3,5-lutidine(35-Lu). However, the additives having a heterocycle are not limited thereto.
For `COc1ccccn1` [2-MeO—Py], the “pKa (water)” value was 3.28.
With `Brc1cccnc1` [3-Br—Py] the “pKa (water)” value was 2.84.
In the case of `COC(=O)c1cccnc1` [3-COOMe—Py], the “pKa (water)” value is reported as 3.13.
With `COc1cccnc1` [3-MeO—Py] the “pKa (water)” value was 4.88.
In the case of `N#Cc1ccncc1` [4-CN—Py], the “pKa (water)” value is reported as 1.9.
For `CCc1ccncc1` [4-Et—Py, 4-ethylpyridine], the pKa was 6.04.
For `CNc1ccncc1` [4-MeNH—Py], the “pKa (water)” value was 12.5.
With `COc1ccncc1` [4-MeO—py, 4-methoxypyridine] the pKa was 6.62 and the “pKa (water)” value was 6.62.
With `Nc1ccncc1` [4-NH2—Py] the “pKa (water)” value was 9.17.
For `Cc1ccncc1` [4-pic], the “pKa (water)” value was 6.03.
In the case of `Cc1ccnc(C)c1` [24-Lu, 2,4-lutidine], the pKa is reported as 6.72.
Compound `Cc1ccc(C)nc1` [25-Lu, 2,5-lutidine] has a pKa of 6.47.
With `Cc1cccc(C)n1` [26-Lu, 2,6-lutidine] the pKa was 6.77 and the “pKa (water)” value was 6.77.
With `Cc1ccncc1C` [34-Lu, 3,4-lutidine] the pKa was 6.52.
For `Cc1cncc(C)c1` [35-Lu, 3,5-lutidine], the pKa was 6.14.
For `c1ccc2c(c1)ccc1ncccc12` [56-benzoquinoline], the “pKa (water)” value was 5.15.
With `Cn1ccnc1` [Mlm, N-methylimidazole] the pKa was 7.3.
In the case of `Cn1cnc2ccccc21` [NMB], the “pKa (water)” value is reported as 5.6.
`CC(C)(C)c1ccncc1` [TBP, 4-tert-butylpyridine] gave a pKa of 5.99.
Work on `c1ccc2nc3ccccc3cc2c1` [acridine] yielded a pKa of 5.6.
For `c1ccc(-c2ccccn2)nc1` [bpy], the “pKa (water)” value was 4.42.
Compound `c1ccc2cnccc2c1` [isoquinoline] has a pKa of 5.38.
In the case of `c1cnccn1` [pyrazine], the pKa is reported as 0.6.
`c1ccnnc1` [pyridazine] gave a pKa of 2.1.
Work on `c1ccc2ncccc2c1` [quinoline] yielded a pKa of 4.97.
In the case of Me-pyrazole, the “pKa (water)” value is reported as 2.1.
